system: retinal precursor cells; test: Sphere passaging and high-throughput drug screening: proliferation of retinal precursor cells from the ciliary epithelium, cell number after one week; type: cell-based, mammalian; settings: control experiment (absence of a compound) = 100; cells grown for one week
Experimental: Kynurenic Acid (0.2 mg/mL), trypsin (1.33 mg/mL), and hyaluronidase (0.67 mg/mL) were weighed out and dissolved in high magnesium/low calcium artificial cerebral spinal fluid (aCSF) at 37° C. Fibroblast growth factor 2 (FGF2; 10 ng/mL) and heparin (2 μg/mL) were added to 100 mL of serum-free media (SFM). Ovomucoid trypsin inhibitor (1 mg/mL) was dissolved in warm SFM and sterile filtered ([…]).
A dissecting microscope, cold light source, and sterile surgical instruments were set up inside of a sterile biological safety cabinet (BSC). Mammalian eyes were enucleated and placed in a petri dish containing cold, sterile aCSF. Under the dissecting microscope, hair, connective tissue, and the dorsal and ventral oblique muscles were cleared from the scleral/corneal border with two sets of forceps. Next, curved or angled micro-dissecting scissors were used to cleave any remaining extraocular muscle tissue, the optic nerve, and cut the eyeball into symmetrical halves; beginning and finishing the cut from the hole left by the optic nerve. Using two sets of forceps to grasp the cornea, the two eye halves were peeled apart. The lens, optic nerve, and vitreous were separated from the eye shells and the eye shells were transferred into a new petri dish (also containing cold, sterile aCSF). To isolate the ciliary epithelium (CE), eye shells were oriented with the cornea on the right and retinal pigmented epithelium (RPE) on the left. A pair of straight forceps were used to pin down the eye shell on the RPE side while a scalpel blade was inserted between the CE and the iris, using pressure to slice the iris/cornea side off from the rest of the shell. Next, the scalpel was run along the border between the CE and the RPE to obtain the CE isolated as a thin strip of tissue. The CE strips were then transferred to a 35 mm dish containing 2 mL of dispase solution (Sigma; T1005) and incubated for 10 minutes at 37° C. Next, the strips were transferred from dispase into a 35 mm dish containing 2 mL of sterile filtered kynurenic acid, trypsin and hyaluronidase solution and incubated at 37° C. for 10 minutes. After incubation, the dish was returned to the dissecting scope, and the CE strips were pinned down with straight, non-serrated forceps, while non-serrated curved forceps were used to scrape the CE off from the underlying sclera. The bare scleral strips were then discarded, such that only the CE cells remained in the enzyme solution. Using a fire-polished, cotton-plugged glass pipette, the cells and enzyme solution were transferred to a 15 mL tube and triturated approximately 45 times to break apart the tissue. The 15 mL tube/cell suspension was centrifuged for 5 minutes at 1500 rpm. The supernatant was gently aspirated from the resulting pellet using a fire-polished, cotton-plugged glass pipette and 2 mL of trypsin inhibitor solution was added to the pellet. Using a small borehole, fire-polished, cotton-plugged glass pipette, the sample was triturated approximately 45 times until it was a single-cell suspension. The 15 mL tube/cell suspension was centrifuged for 5 minutes at 1500 rpm. The supernatant was gently aspirated from the resulting pellet and 1-2 mL of SFM with FGF2 and heparin (plating media) was added. The cells and media were mixed to ensure a uniform cell suspension and a 10 uL sample was taken and cell density was determined. The cells were then seeded and cultured at 10c/μL in culture-treated plates or flasks. After one week, roughly 1 in 500 cells proliferated to form free-floating, clonal spheres greater than 80 μm in diameter.
Human-derived spheres were passaged using the kynurenic acid, trypsin, hyaluronidase enzyme solution with the addition of collagenase I (0.5 mg/mL), collagenase II (0.5 mg/mL) and elastase (0.1 mg/mL). Mouse-derived spheres were passaged using hyaluronidase (0.67 mg/mL), collagenase I (0.5 mg/mL), and collagenase II (0.5 mg/mL) dissolved in Accustase solution (Sigma; SCR005). […]

Row | Compound | Cell proliferation within one week [%]
1 | O=C(Nc1ccc(-c2cnco2)c(Cl)c1)C1COc2ccccc2O1 (racemic) [Compound 6, N-(3-chloro-4-(oxazol-5-yl)phenyl)-2,3-dihydrobenzo[b][1,4]dioxine-2-carboxamide] | 120%
2 | COc1ccc2c(c1)CC(C(=O)Nc1ccc(-c3cnco3)c(OC)c1)CO2 (racemic) [Compound 14, 6-methoxy-N-(3-methoxy-4-(oxazol-5-yl)phenyl)chromane-3-carboxamide] | 196%
3 | O=C(Nc1ccc(-c2cnco2)c(Cl)c1)C1COc2ccc(Cl)cc2C1 (racemic) [Compound 38, 6-chloro-N-(3-chloro-4-(oxazol-5-yl)phenyl)chromane-3-carboxamide] | 122%
4 | COc1ccc2c(c1)OC(C(=O)Nc1ccc(-c3cnco3)c(F)c1)CO2 (racemic) [Compound 7, N-(3-fluoro-4-(oxazol-5-yl)phenyl)-7-methoxy-2,3-dihydrobenzo[b][1,4]dioxine-2-carboxamide] | 123%
5 | O=C(Nc1ccc(-c2cnco2)c(F)c1)C1CCOc2ccccc21 (racemic) [Compound 4, N-(3-fluoro-4-(oxazol-5-yl)phenyl)chromane-4-carboxamide] | 106%
6 | COc1ccc2c(c1)OC(C(=O)Nc1ccc(-c3ccncc3)c(OC)c1)CO2 (racemic) [Compound 18, 7-methoxy-N-(3-methoxy-4-(pyridin-4-yl)phenyl)-2,3-dihydrobenzo[b][1,4]dioxine-2-carboxamide] | 104%
7 | Cc1ncc(-c2ccc(NC(=O)C3COc4ccccc4C3)cc2Cl)o1 (racemic) [Compound 30, N-(3-chloro-4-(2-methyloxazol-5-yl)phenyl)chromane-3-carboxamide] | 119%
8 | COc1cc(NC(=O)C2COc3ccccc3C2)ccc1-c1cnco1 (racemic) [Compound 12, N-(3-methoxy-4-(oxazol-5-yl)phenyl) chromane-3-carboxamide] | 230%
9 | COc1ccc2c(c1)CC(C(=O)Nc1ccc(-c3ccncc3)c(OC)c1)CO2 (racemic) [Compound 16, 6-methoxy-N-(3-methoxy-4-(pyridin-4-yl)phenyl)chromane-3-carboxamide] | 143%
10 | Cc1cc(NC(=O)C2COc3ccccc3C2)ccc1-c1cnco1 (stereo not drawn) [Compound 25, N-(3-methyl-4-(oxazol-5-yl)phenyl)chromane-3-carboxamide] | 120%
11 | O=C(Nc1ccc(-c2cnco2)c(Cl)c1)C1Cc2ccccc2C1 (racemic) [Compound 36, N-(3-chloro-4-(oxazol-5-yl)phenyl)-2,3-dihydro-1H-indene-2-carboxamide] | 124%
12 | O=C(Nc1ccc(-c2cnco2)c(Cl)c1)C1COc2c(F)cc(F)cc2C1 (racemic) [Compound 39, N-(3-chloro-4-(oxazol-5-yl)phenyl)-6,8-difluorochromane-3-carboxamide] | 132%
13 | O=C(Nc1ccc(-c2cnco2)c(Cl)c1)C1CCOc2ccccc21 (racemic) [Compound 2, N-(3-chloro-4-(oxazol-5-yl)phenyl) chromane-4-carboxamide] | 128%
14 | COc1cc(NC(=O)C2COc3ccccc3O2)ccc1-c1cnco1 (racemic) [Compound 13, N-(3-methoxy-4-(oxazol-5-yl)phenyl)-2,3-dihydrobenzo[b][1,4]dioxine-2-carboxamide] | 137%
15 | COc1ccc2c(c1)OC(C(=O)Nc1ccc(-c3cnco3)c(Cl)c1)CO2 (racemic) [Compound 8, N-(3-chloro-4-(oxazol-5-yl)phenyl)-7-methoxy-2,3-dihydrobenzo[b][1,4]dioxine-2-carboxamide] | 117%
16 | O=C(Nc1ccc(-c2cnco2)c(F)c1)C1COc2ccccc2O1 (racemic) [Compound 9, N-(3-fluoro-4-(oxazol-5-yl)phenyl)-2,3-dihydrobenzo[b][1,4]dioxine-2-carboxamide] | 118%

Row | Compound | Cell proliferation within one week [%]
17 | O=C(Nc1ccc(-c2cnco2)c(Cl)c1)C1COc2ccccc2O1 (racemic) [Compound 41, N-(3-chloro-4-(oxazol-5-yl)phenyl)-2,3-dihydrobenzo[b][1,4]dioxine-2-carboxamide] | 114%
18 | O=C(Nc1ccc(-c2cnco2)c(Cl)c1)C1COc2ccc(F)cc2C1 (stereo not drawn) [Compound 42, N-(3-chloro-4-(oxazol-5-yl)phenyl)-6-fluorochromane-3-carboxamide] | 124%
19 | COc1cccc2c1CC(C(=O)Nc1ccc(-c3cnco3)c(Cl)c1)CO2 (racemic) [Compound 40, N-(3-chloro-4-(oxazol-5-yl)phenyl)-5-methoxychromane-3-carboxamide] | 107%
20 | N-(2-(difluoromethoxy)-4-(oxazol-5-yl)phenyl)chroman-3-carboxamide [Compound 27] | 106%
21 | COc1cc(NC(=O)C2COc3ccccc3O2)ccc1-c1ccncc1 (racemic) [Compound 19, N-(3-methoxy-4-(pyridin-4-yl)phenyl)-2,3-dihydrobenzo[b][1,4]dioxine-2-carboxamide] | 110%
22 | O=C(Nc1ccc(-c2cnco2)c(Cl)c1)C1COc2ccccc2C1 (racemic) [Compound 1, N-(3-chloro-4-(1,3-oxazol-5-yl)phenyl) chromane-3-carboxamide] | 179%
23 | O=C(Nc1ccc(-c2cnco2)c(Cl)c1)C1Cc2ccccc2O1 (racemic) [Compound 31, N-(3-chloro-4-(oxazol-5-yl)phenyl)-2,3-dihydrobenzofuran-2-carboxamide] | 137%
24 | O=C(Nc1ccc(-n2cncn2)c(C(F)(F)F)c1)C1COc2ccccc2C1 (racemic) [Compound 28, N-(4-(1H-1,2,4-triazol-1-yl)-3-(trifluoromethyl)phenyl)chromane-3-carboxamide] | 118%
25 | COc1cc(NC(=O)C2CCOc3ccccc32)ccc1-c1ccncc1 (racemic) [Compound 15, N-(3-methoxy-4-(pyridin-4-yl)phenyl)chromane-4-carboxamide] | 122%
26 | O=C(Nc1ccc(-c2cnco2)c(Cl)c1)C1COc2cc(F)ccc2C1 (racemic) [Compound 37, N-(3-chloro-4-(oxazol-5-yl)phenyl)-7-fluorochromane-3-carboxamide] | 158%
27 | COc1ccc2c(c1)OC(C(=O)Nc1ccc(-c3cnco3)c(OC)c1)CO2 (racemic) [Compound 20, 7-methoxy-N-(3-methoxy-4-(oxazol-5-yl)phenyl)-2,3-dihydrobenzo[b][1,4]dioxine-2-carboxamide] | 113%
28 | O=C(Nc1ccc(-c2cnco2)c(Cl)c1)C1COc2ccccc2C1 (single isomer, unassigned; (-)) [Compound 21, (−)-N-(3-chloro-4-(1,3-oxazol-5-yl)phenyl)chromane-3-carboxamide] | 126%
29 | O=C(Nc1ccc(-c2cnco2)c(F)c1)C1COc2ccccc2C1 (racemic) [Compound 5, N-(3-fluoro-4-(oxazol-5-yl)phenyl)chromane-3-carboxamide] | 133%
30 | O=C(CC1Cc2ccccc2O1)Nc1ccc(-c2cnco2)c(Cl)c1 (racemic) [Compound 34, N-(3-chloro-4-(oxazol-5-yl)phenyl)-2-(2,3-dihydrobenzofuran-2-yl)acetamide] | 129%
31 | COc1ccc2c(c1)CC(C(=O)Nc1ccc(-c3cnco3)c(Cl)c1)CO2 (racemic) [Compound 3, N-(3-chloro-4-(oxazol-5-yl)phenyl)-6-methoxychromane-3-carboxamide] | 138%

same assay, conditions: within one week, over control

Row | Compound | increase of cell proliferation
32 | COc1ccc2c(c1)CC(C(=O)Nc1ccc(-c3cnco3)c(OC)c1)CO2 (racemic) [Compound 14, 6-methoxy-N-(3-methoxy-4-(oxazol-5-yl)phenyl)chromane-3-carboxamide] | 96%
33 | O=C(Nc1ccc(-c2cnco2)c(Cl)c1)C1COc2ccc(Cl)cc2C1 (racemic) [Compound 38, 6-chloro-N-(3-chloro-4-(oxazol-5-yl)phenyl)chromane-3-carboxamide] | 58%
34 | COc1cc(NC(=O)C2COc3ccccc3C2)ccc1-c1cnco1 (racemic) [Compound 12, N-(3-methoxy-4-(oxazol-5-yl)phenyl) chromane-3-carboxamide] | 130%
35 | COc1ccc2c(c1)CC(C(=O)Nc1ccc(-c3ccncc3)c(OC)c1)CO2 (racemic) [Compound 16, 6-methoxy-N-(3-methoxy-4-(pyridin-4-yl)phenyl)chromane-3-carboxamide] | 43%
36 | O=C(Nc1ccc(-c2cnco2)c(Cl)c1)C1COc2ccccc2C1 (racemic) [Compound 1, N-(3-chloro-4-(1,3-oxazol-5-yl)phenyl) chromane-3-carboxamide] | 79%
